Laboratory results taken from patent publication US20230183188A1, “ENPP1 MODULATORS AND USES THEREOF” (Vir Biotechnology, Inc., priority 2020, published 2023).

Target: T1, recombinant protein containing the human ENPP1 enzymatic domain (Homo sapiens, UniProt P22413)
T1 construct: recombinant protein containing the human ENPP1 enzymatic domain; purchased R&D Systems 6136-EN-010
T1 sequence (P22413 191-591 limits assumed): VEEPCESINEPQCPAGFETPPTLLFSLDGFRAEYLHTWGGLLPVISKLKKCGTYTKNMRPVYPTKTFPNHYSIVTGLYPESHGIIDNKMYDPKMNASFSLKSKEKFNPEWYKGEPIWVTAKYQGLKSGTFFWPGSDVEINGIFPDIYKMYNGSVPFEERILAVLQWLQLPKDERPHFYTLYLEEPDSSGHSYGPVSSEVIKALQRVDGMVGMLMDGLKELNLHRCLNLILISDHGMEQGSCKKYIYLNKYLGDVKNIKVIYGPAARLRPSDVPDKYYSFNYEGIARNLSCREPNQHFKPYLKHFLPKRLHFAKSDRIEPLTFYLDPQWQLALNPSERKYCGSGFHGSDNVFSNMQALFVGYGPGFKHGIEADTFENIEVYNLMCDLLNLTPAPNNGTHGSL
Assay: ENPP1 Enzymatic Inhibition Assay (2′3′-cGAMP substrate, AMP-Glo luminescence)
Format: biochemical
Settings: 1 nM ENPP1, 20 uM 2′3′-cGAMP substrate, 30 minutes at 37° C.
Protocol: The inhibition of ENPP1's phosphodiesterase activity were tested in a purified enzymatic assay using 2′3′-cyclic GAMP as a substrate which allowed for the release of cleaved AMP to be monitored using a luminescent assay.
Putative inhibitors were diluted in assay buffer (50 mM Tris pH 8.0, 250 mM NaCl, 0.5 mM CaCl2, 1 uM ZnCl2, 1% DMSO) and pre-incubated for 15 minutes at 37° C. with recombinant protein containing the human ENPP1 enzymatic domain (R&D Systems cat. #6136-EN-010). The enzymatic reaction was initiated upon addition of the 2′3′-cGAMP substrate. The final reaction concentrations were 1 nM ENPP1 and 20 uM 2′3′-cGAMP substrate in a 25 uL volume. Inhibitor concentrations ranged from 10 uM to 0.2 nM. The reaction was incubated for 30 minutes at 37° C.
After reacting for 30 minutes, the amount of AMP generated from the cleavage of 2′3′-cGAMP was determined using the Promega AMP-Glo method according to the manufacturer's protocol. First, AMP-Glo reagent 1 was added and incubated with the reaction mix for 1 hour at room temperature. Second, AMP Detection solution was added and the mixture was incubated for an additional hour. The luminescence of the mixture was read on a Perkin Elmer Ensight plate reader.
The maximum and minimum levels of ENPP1 activity were established using no inhibitor and no enzyme controls, respectively. The activity observed using ENPP1 inhibitors was quantified as the percent of activity relative to these controls. IC50 values were calculated using GraphPad Prism by fitting a sigmoidal variable slope nonlinear regression model to the data.

IC50	SMILES
10 to 100 nM	COc1ccc2c(Oc3ccc(S(N)(=O)=NCCO)cc3)ccnc2c1 (stereo not shown) [Compound 9, N-(2-hydroxyethyl)-4-((7-methoxyquinolin-4-yl)oxy)benzenesulfonimidamide]
10 to 100 nM	COc1ccc2c(Oc3ccc(S(N)(=O)=NCCOc4ccccc4)cc3)ccnc2c1 (stereo not shown) [Compound 34, 4-((7-methoxyquinolin-4-yl)oxy)-N′-(2-phenoxyethyl)benzenesulfonimidamide]
< 10 nM	COc1ccc2c(Oc3ccc(S(N)(=O)=NCCOc4ccccn4)cc3)ccnc2c1 (stereo not shown) [Compound 12, 4-((7-methoxyquinolin-4-yl)oxy)-N′-(2-(pyridin-2-yloxy)ethyl)benzenesulfonimidamide]
< 10 nM	COc1ccc2c(Oc3ccc(S(N)(=O)=NC4(c5ccccn5)CC4)cc3)ccnc2c1 (stereo not shown) [Compound 33, 4-((7-methoxyquinolin-4-yl)oxy)-N′-(1-(pyridin-2-yl)cyclopropyl)benzenesulfonimidamide]
< 10 nM	COc1ccc2c(Oc3ccc(S(N)(=O)=NCc4nccs4)cc3)ccnc2c1 (stereo not shown) [Compound 17, 4-((7-methoxyquinolin-4-yl)oxy)-N′-(thiazol-2-ylmethyl)benzenesulfonimidamide]
< 10 nM	COc1ccc2c(Oc3ccc(S(N)(=O)=NCc4ccccc4)cc3)ccnc2c1 (stereo not shown) [Compound 25, N′-benzyl-4-((7-methoxyquinolin-4-yl)oxy)benzenesulfonimidamide]
< 10 nM	COc1ccc2c(Oc3ccc(S(=N)(=O)NC[C@@H](O)CO)cc3)ccnc2c1 (single isomer, unassigned) [Compound 45]
10 to 100 nM	COc1ccc2c(Oc3ccc(S(N)(=O)=NCc4ccccn4)cc3)ccnc2c1 (stereo not shown) [Compound 26, 4-((7-methoxyquinolin-4-yl)oxy)-N′-(pyridin-2-ylmethyl)benzenesulfonimidamide]
< 10 nM	CCS(=N)(=O)c1ccc(Oc2ccnc3cc(OC)ccc23)cc1 (stereo not shown) [Compound 4, ethyl(imino)(4-((7-methoxyquinolin-4-yl)oxy)phenyl)-λ^6-sulfanone]
10 to 100 nM	COc1ccc2c(Oc3ccc(S(N)(=O)=NC[C@H]4CCCN4)cc3)ccnc2c1 (stereo partly drawn) [Compound 6, 4-((7-methoxyquinolin-4-yl)oxy)-N′-(((R)-pyrrolidin-2-yl)methyl)benzenesulfonimidamide]
